Source: PMC10940605, “Design, synthesis and in vitro anticancer activity of some new lomefloxacin derivatives” (Scientific Reports, 2024)

Assays:
Assay in all cases: NCI-60 SRB screen
Format in all cases: cell-based
A549/ATCC = conditions: Homo sapiens, 10^–5 Molar, read-out: Percent growth inhibition
Method in brief: (§1)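 Percent growth inhibition at 10^−5 M, 48 h. Sulforhodamine B read-out at […] following cold TCA fixation; Tz plates fixed when compound was added.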

ACHN = conditions: Homo sapiens, 10^–5 Molar, read-out: Percent growth inhibition
Method in brief: (§2)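 DMSO stocks diluted in medium with gentamycin; 10^−5 M final; 48 h, 37 °C, 5% CO2, 100% humidity; TCA fix 60 min 4 °C; SRB 10 min RT; OD […]; % growth inhibition vs Tz and C.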

BT-549 = conditions: Homo sapiens; BT-549, 10^–5 Molar; read-out: Percent growth inhibition
Method in brief: as §1

EKVX = conditions: Homo sapiens, 10^–5 Molar, read-out: Percent growth inhibition
Method in brief: as §1

HCC-2998 = conditions: Homo sapiens; HCC-2998, 10^–5 Molar; read-out: Percent growth inhibition
Method in brief: as §1

HCT-116 = conditions: Homo sapiens; HCT-116, 10^–5 Molar; read-out: Percent growth inhibition
Method in brief: as §1

HCT-15 = conditions: Homo sapiens; HCT-15, 10^–5 Molar; read-out: Percent growth inhibition
Method in brief: as §1

HOP-92 = conditions: Homo sapiens; HOP-92, 10^–5 Molar; read-out: Percent growth inhibition
Method in brief: as §1

IGROV1 = conditions: Homo sapiens, IGROV-1; IGROV1, 10^–5 Molar; read-out: Percent growth inhibition
Method in brief: as §1

K-562 = conditions: Homo sapiens, K562; K-562, 10^–5 Molar; read-out: Percent growth inhibition
Method in brief: as §2

MALME-3M = conditions: Homo sapiens, 10^–5 Molar, read-out: Percent growth inhibition
Method in brief: as §2

MDA-MB-435 = conditions: Homo sapiens; MDA-MB-435, 10^–5 Molar; read-out: Percent growth inhibition
Method in brief: as §2

NCI-H226 = conditions: Homo sapiens; NCI-H226, 10^–5 Molar; read-out: Percent growth inhibition
Method in brief: as §2

NCI-H23 = conditions: Homo sapiens; NCI-H23, 10^–5 Molar; read-out: Percent growth inhibition
Method in brief: as §1

OVCAR-4 = conditions: Homo sapiens; OVCAR-4, 10^–5 Molar; read-out: Percent growth inhibition
Method in brief: as §1

OVCAR-5 = conditions: Homo sapiens; OVCAR-5, 10^–5 Molar; read-out: Percent growth inhibition
Method in brief: as §2

OVCAR-8 = conditions: Homo sapiens; OVCAR-8, 10^–5 Molar; read-out: Percent growth inhibition
Method in brief: as §1

PC-3 = conditions: Homo sapiens; PC-3, 10^–5 Molar; read-out: Percent growth inhibition
Method in brief: as §2

SK-MEL-28 = conditions: Homo sapiens; SK-MEL-28, 10^–5 Molar; read-out: Percent growth inhibition
Method in brief: as §1

SN12C = conditions: Homo sapiens, 10^–5 Molar, read-out: Percent growth inhibition
Method in brief: as §2

SNB-19 = conditions: Homo sapiens; SNB-19, 10^–5 Molar; read-out: Percent growth inhibition
Method in brief: as §2

U251 = conditions: Homo sapiens, U-251; U251, 10^–5 Molar; read-out: Percent growth inhibition
Method in brief: as §1

leukemia SR = conditions: Homo sapiens; SR, 10^–5 Molar; read-out: Percent growth inhibition
Method in brief: as §1

melanoma SK-MEL-5 = conditions: Homo sapiens; SK-MEL-5, 10^–5 Molar; read-out: Percent growth inhibition
Method in brief: as §2

Structure (SMILES) | inhibition at 10 µM (A549/ATCC) | inhibition at 10 µM (ACHN) | inhibition at 10 µM (BT-549) | inhibition at 10 µM (EKVX) | inhibition at 10 µM (HCC-2998) | inhibition at 10 µM (HCT-116) | inhibition at 10 µM (HCT-15) | inhibition at 10 µM (HOP-92) | inhibition at 10 µM (IGROV1) | inhibition at 10 µM (K-562) | inhibition at 10 µM (MALME-3M) | inhibition at 10 µM (MDA-MB-435) | inhibition at 10 µM (NCI-H226) | inhibition at 10 µM (NCI-H23) | inhibition at 10 µM (OVCAR-4) | inhibition at 10 µM (OVCAR-5) | inhibition at 10 µM (OVCAR-8) | inhibition at 10 µM (PC-3) | inhibition at 10 µM (SK-MEL-28) | inhibition at 10 µM (SN12C) | further results
CCn1cc(C(=O)NN=Cc2ccccc2)c(=O)c2cc(F)c(N3CCNC(C)C3)c(F)c21 (stereo not drawn) [Compound 3a, N'-Benzylidene-1-ethyl-6,8-difluoro-7-(3-methylpiperazin-1-yl)-4-oxo-1,4-dihydroquinoline-3-carbohydrazide] | 184% | 43.2% | 22.2% | 65.7% | 183% | 42.5% | 186% | 44.2% | 42% | 139% | 178% | 188% | 12.6% | 31.5% | 29.3% | 33% | 71.6% | 51.1% | 179% | 38.3% | inhibition at 10 µM (SNB-19): 81.1%; inhibition at 10 µM (U251): 192%; inhibition at 10 µM (leukemia SR): 115%; inhibition at 10 µM (melanoma SK-MEL-5): 88.1%
CCn1cc(C(=O)NN=Cc2cccc(F)c2)c(=O)c2cc(F)c(N3CCNC(C)C3)c(F)c21 (stereo not drawn) [Compound 3b, 1-Ethyl-6,8-difluoro-N′-(3-fluorobenzylidene)-7-(3-methylpiperazin-1-yl)-4-oxo-1,4-dihydroquinoline-3-carbohydrazide] | 167% | 25.6% | 17.1% | 49.2% | 181% | 28.8% | 182% | 48.8% | 30.6% | 152% | 167% | 175% | 2.9% | 23.8% | 76.2% | 9.76% | 105% | 30.4% | 164% | 104% | inhibition at 10 µM (SNB-19): 159%; inhibition at 10 µM (U251): 174%; inhibition at 10 µM (leukemia SR): 129%; inhibition at 10 µM (melanoma SK-MEL-5): 47.4%
CCn1cc(C(=O)NN=Cc2ccc(Br)cc2)c(=O)c2cc(F)c(N3CCNC(C)C3)c(F)c21 (stereo not drawn) [Compound 3c, N'-(4-Bromobenzylidene)-1-ethyl-6,8-difluoro-7-(3-methylpiperazin-1-yl)-4-oxo-1,4-dihydroquinoline-3-carbohydrazide] | 54.7% | 11.2% | 8.32% | 13.1% | 74.1% | 32.3% | 119% | 38.8% | 28.7% | 113% | 41.3% | 83.3% | 2.69% | 9.03% | 18.3% | 5.97% | 42.2% | 31.6% | 8.78% | 47.8% | inhibition at 10 µM (SNB-19): 45.5%; inhibition at 10 µM (U251): 98.6%; inhibition at 10 µM (leukemia SR): 95.7%; inhibition at 10 µM (melanoma SK-MEL-5): 17.6%
